From ChEMBL document CHEMBL1201862, “PubChem BioAssay data set” (2004) come the findings set out here.

Structures are written as SMILES.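 These data come from cells grown in 96-well plates and exposed to compound for 48 hours at five concentrations. Here, GI50 denotes the concentration required for 50% inhibition of growth.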 Calls of active or inactive are those of the source. No stated cut-off is given here; in the data, active = GI50 up to about 1.1 µM and inactive = higher.

Common to all, as to test: NCI tumour cell line growth inhibition, 48 h
The subject of test [1] is IGROV-1.
Test [2] concerns 786-0.
The subject of test [3] is TK-10.
In test [4] the test system is NCI-H226.
Test [5] deals with MDA-N.
For test [6], the system named is M14.
Test [7] deals with CCRF-CEM.
Test [8] has as its system HT-29.
For test [9], the system named is SNB-75.
The test system of test [10] is NCI-H460.
In test [11] the test system is T47D.
Test [12] relates to HOP-62.
The test system of test [13] is MCF7.
The subject of test [14] is Hs-578T.
In test [15] the test system is HL-60.
Test [16] deals with SK-OV-3.
Test [17] has as its system RXF 393.
In test [18] the test system is SF-539.
Test [19] relates to BT-549.
Test [20] concerns MDA-MB-435.

Turning to `Cn1c(=O)c2nc(SCCN3CCOCC3)[nH]c2n(C)c1=S`, the GI50 in test [1], in test [2], in test [3], in test [4], in [5] and in test [6] was > 100 µM (inactive) throughout. The GI50 in test [7], in [8], in [9], in [10], in test [11] and in test [12] was > 100 µM (inactive) throughout. The GI50 in test [13], in test [14], in test [15], in [16], in [17] and in [18] was > 100 µM (inactive) throughout. The GI50 in test [19] and in test [20] was > 100 µM (inactive) each time.
Turning to `Cc1cc2nc(-c3c(F)cccc3F)n(Cc3c(F)cccc3F)c2cc1C`, the GI50 in test [1] is 14.3 µM (inactive); in [2], 17.9 µM (inactive); in [3], 29.4 µM (inactive); in [4] it was 15.7 µM (inactive); in [5], 16 µM (inactive); in [6], 12.2 µM (inactive). The GI50 in [7] was 22.7 µM (inactive); in [8], 15.5 µM (inactive); in test [9], 3.37 µM (inactive); in test [10], 13.6 µM (inactive); in test [11], 14.8 µM (inactive); in test [12], 14.4 µM (inactive). Moreover, the GI50 in [13] is 15.2 µM (inactive); in test [14] it was 19.2 µM (inactive); in test [15], 16.3 µM (inactive); in [16], 16.9 µM (inactive); in [17] it was 23.2 µM (inactive); in test [18], 18.5 µM (inactive). For the same compound, the GI50 in test [19] is 13.2 µM (inactive); in test [20] it was 14.7 µM (inactive).
With `O=c1c2ccccc2c2ccccc2c(=O)n1Cc1ccc2c(c1)OCO2`, the GI50 was 8.51 µM (inactive) in [1]; 27 µM (inactive) in test [2]; > 100 µM (inactive) in test [3]; 56.1 µM (inactive) in test [4]; 10.1 µM (inactive) in [5]; 26.9 µM (inactive) in test [6]. For the same compound, the GI50 in test [7] was 19.1 µM (inactive); in [8], 22.6 µM (inactive); in test [9], 42.7 µM (inactive); in test [10], 24.6 µM (inactive); in [11], 39.9 µM (inactive); in test [12], 62.1 µM (inactive). Moreover, the GI50 in test [13] was 38.9 µM (inactive); in test [14], 37.9 µM (inactive); in [15], 11.4 µM (inactive); in [16], 41.4 µM (inactive); in test [17], 36 µM (inactive); in [18], 27.1 µM (inactive). For the same compound, the results for the GI50 in test [19] and in test [20] were 20.9 µM (inactive) and 6.17 µM (inactive), respectively.
`CC(C)=CCC[C@@H](C)C1=C(O)C(=O)C(C)=C(Nc2ccccc2)C1=O`: the GI50 was 17.8 µM (inactive) in test [1]; 25.3 µM (inactive) in test [2]; 29 µM (inactive) in [3]; 26.7 µM (inactive) in test [4]; 28.4 µM (inactive) in test [5]; 14.9 µM (inactive) in test [6]. Besides, the GI50 in [7] is 1.62 µM (inactive); in test [8], 31.3 µM (inactive); in [9] it was 31.5 µM (inactive); in [10], 13.3 µM (inactive); in [11], 19.9 µM (inactive); in [12], 11.3 µM (inactive). Besides, the GI50 is 24.5 µM (inactive) in [13]; 31.8 µM (inactive) in test [14]; 2.98 µM (inactive) in [15]; 27.6 µM (inactive) in test [16]; 19.2 µM (inactive) in test [17]; 26 µM (inactive) in [18]. Further, the GI50 in [19] is 24.7 µM (inactive); in [20], 27.7 µM (inactive).
For the compound `O=c1oc2ccccc2c(-c2ccc(O)cc2)c1Oc1ccccc1`, the GI50 in test [1] is 6.44 µM (inactive); in test [2], 23.1 µM (inactive); in test [3] it was 8.05 µM (inactive); in test [4], > 47 µM (inactive); in test [5], 14.3 µM (inactive); in test [6] it was 9.16 µM (inactive). The GI50 in test [7] is 25.4 µM (inactive); in test [8] it was > 52.1 µM (inactive); in test [9], > 46.8 µM (inactive); in test [10] it was 6.85 µM (inactive); in test [11], > 100 µM (inactive); in test [12] it was 24.1 µM (inactive). Also, the GI50 was 11.2 µM (inactive) in test [13]; 7.5 µM (inactive) in test [14]; 54 µM (inactive) in test [15]; 34.8 µM (inactive) in test [16]; 23 µM (inactive) in test [17]; 20.7 µM (inactive) in test [18]. For the same compound, the GI50 was 3.33 µM (inactive) in test [19] and 22.1 µM (inactive) in [20].
Turning to `COc1ccccc1NC1=NCC(C)S1` (stereo not given), the GI50 in test [1], in test [2], in [3], in test [4], in [5] and in test [6] was > 100 µM (inactive) in each case. In addition, the GI50 in [7], in test [8], in [9], in [10], in [11] and in test [12] was > 100 µM (inactive) in each case. The GI50 in [13] was > 100 µM (inactive); in test [14], > 100 µM (inactive); in test [15] it was > 100 µM (inactive); in test [16], > 100 µM (inactive); in [17] it was 33.8 µM (inactive); in test [18] it was > 100 µM (inactive). Moreover, the GI50 in [19] and in [20] was > 100 µM (inactive) each time.
For `CCOCc1nc2c(OC)c(-c3nc4ccc(N5CCN(C)CC5)cc4[nH]3)cc(OC)c2[nH]1`, the GI50 in [1] is 91.6 µM (inactive); in test [2], 31 µM (inactive); in test [3], 53.3 µM (inactive); in test [4], 31.9 µM (inactive); in test [5], 18.6 µM (inactive); in test [6], 20.2 µM (inactive). The GI50 in [7] was 12.7 µM (inactive); in test [8] it was 27.8 µM (inactive); in [9] it was 28.9 µM (inactive); in test [10], 26.4 µM (inactive); in [11], > 100 µM (inactive); in test [12], 25.6 µM (inactive). Also, the GI50 in test [13] was 47.6 µM (inactive); in test [14], 34.2 µM (inactive); in test [15] it was 4.39 µM (inactive); in [16], 71.4 µM (inactive); in [17], 16 µM (inactive); in test [18] it was 19.3 µM (inactive). Also, the GI50 in [19] is 66.4 µM (inactive); in test [20], 20.6 µM (inactive).
In the case of `O=c1[nH]/c(=C/c2ccc(OCc3ccccc3)cn2)c(=O)[nH]/c1=C/c1cccnc1`, the GI50 was 0.908 µM (active) in test [1]; 0.474 µM (active) in [2]; 2.18 µM (inactive) in [3]; 0.904 µM (active) in [4]; 0.106 µM (active) in [5]; 0.344 µM (active) in test [6]. The GI50 was 0.537 µM (active) in test [7]; 0.759 µM (active) in test [8]; 0.452 µM (active) in test [9]; 0.41 µM (active) in [10]; 0.458 µM (active) in test [11]; 0.497 µM (active) in test [12]. For the same compound, the GI50 in test [13] is 0.378 µM (active); in test [14], 0.526 µM (active); in test [15], 0.117 µM (active); in test [16], 0.703 µM (active); in test [17], 0.574 µM (active); in [18] it was 0.401 µM (active). Besides, the GI50 in [19] is 14.2 µM (inactive); in test [20], 0.0845 µM (active).
Regarding `N=C(N)NS(=O)(=O)c1ccc(NNc2c3ccccc3nc3ccccc23)cc1`, the GI50 was 15.2 µM (inactive) in test [1]; 10.1 µM (inactive) in test [2]; 16.4 µM (inactive) in test [3]; 1.08 µM (active) in [4]; 13.2 µM (inactive) in [5]; 12.8 µM (inactive) in [6]. Besides, the GI50 in [7] is 1.23 µM (inactive); in [8], 7.28 µM (inactive); in test [9] it was 16.5 µM (inactive); in test [10], 2.7 µM (inactive); in test [11], 5.73 µM (inactive); in [12] it was 6.87 µM (inactive). Further, the GI50 in test [13] was 2.48 µM (inactive); in [14], 23.9 µM (inactive); in test [15], 4.49 µM (inactive); in [16], 11.1 µM (inactive); in test [17], 12.9 µM (inactive); in [18], 14.3 µM (inactive). Besides, the GI50 is 1.18 µM (inactive) in test [19] and 16.2 µM (inactive) in test [20].
As to `OC(C1CCCC1=N/N=C1/CCCC1C(O)(C(F)(F)Cl)C(F)(F)Cl)(C(F)(F)Cl)C(F)(F)Cl` (stereo not given), the GI50 in test [1], in test [2], in [3], in test [4], in test [5] and in test [6] was > 10 µM (inactive) each time. In addition, the GI50 in test [7], in test [8], in test [9], in test [10], in test [11] and in test [12] was > 10 µM (inactive) throughout. Further, the GI50 in [13], in test [14], in test [15], in test [16], in [17] and in test [18] was > 10 µM (inactive) throughout. In addition, the GI50 in [19] and in test [20] was > 10 µM (inactive) in each case.
